Like-named read-outs stand apart in the source and are kept apart here.
How the values were obtained:
CRBN and CBP-BRD = CRBN and CBP-BRD (Homo sapiens, UniProt Q92793+Q96SW2); test: FluoPPI cellular ternary complex formation, CBP-BRD; format: cell-based; conditions: U2OS cells, 6 h
EP300 = target: T1, EP300 (Homo sapiens, UniProt Q09472); test: Quantification of EP300 degradation by Western blotting in LP1 cells; format: cell-based; conditions: 16 h, Western blot; for % remaining EP300: 5 μM compound
T1 construct: quantification of CBP and EP300 levels by Western blotting following 16 h treatment of LP1 cells; endogenous in cells; host or cells: LP1 cells
T1 sequence (Q09472 whole entry): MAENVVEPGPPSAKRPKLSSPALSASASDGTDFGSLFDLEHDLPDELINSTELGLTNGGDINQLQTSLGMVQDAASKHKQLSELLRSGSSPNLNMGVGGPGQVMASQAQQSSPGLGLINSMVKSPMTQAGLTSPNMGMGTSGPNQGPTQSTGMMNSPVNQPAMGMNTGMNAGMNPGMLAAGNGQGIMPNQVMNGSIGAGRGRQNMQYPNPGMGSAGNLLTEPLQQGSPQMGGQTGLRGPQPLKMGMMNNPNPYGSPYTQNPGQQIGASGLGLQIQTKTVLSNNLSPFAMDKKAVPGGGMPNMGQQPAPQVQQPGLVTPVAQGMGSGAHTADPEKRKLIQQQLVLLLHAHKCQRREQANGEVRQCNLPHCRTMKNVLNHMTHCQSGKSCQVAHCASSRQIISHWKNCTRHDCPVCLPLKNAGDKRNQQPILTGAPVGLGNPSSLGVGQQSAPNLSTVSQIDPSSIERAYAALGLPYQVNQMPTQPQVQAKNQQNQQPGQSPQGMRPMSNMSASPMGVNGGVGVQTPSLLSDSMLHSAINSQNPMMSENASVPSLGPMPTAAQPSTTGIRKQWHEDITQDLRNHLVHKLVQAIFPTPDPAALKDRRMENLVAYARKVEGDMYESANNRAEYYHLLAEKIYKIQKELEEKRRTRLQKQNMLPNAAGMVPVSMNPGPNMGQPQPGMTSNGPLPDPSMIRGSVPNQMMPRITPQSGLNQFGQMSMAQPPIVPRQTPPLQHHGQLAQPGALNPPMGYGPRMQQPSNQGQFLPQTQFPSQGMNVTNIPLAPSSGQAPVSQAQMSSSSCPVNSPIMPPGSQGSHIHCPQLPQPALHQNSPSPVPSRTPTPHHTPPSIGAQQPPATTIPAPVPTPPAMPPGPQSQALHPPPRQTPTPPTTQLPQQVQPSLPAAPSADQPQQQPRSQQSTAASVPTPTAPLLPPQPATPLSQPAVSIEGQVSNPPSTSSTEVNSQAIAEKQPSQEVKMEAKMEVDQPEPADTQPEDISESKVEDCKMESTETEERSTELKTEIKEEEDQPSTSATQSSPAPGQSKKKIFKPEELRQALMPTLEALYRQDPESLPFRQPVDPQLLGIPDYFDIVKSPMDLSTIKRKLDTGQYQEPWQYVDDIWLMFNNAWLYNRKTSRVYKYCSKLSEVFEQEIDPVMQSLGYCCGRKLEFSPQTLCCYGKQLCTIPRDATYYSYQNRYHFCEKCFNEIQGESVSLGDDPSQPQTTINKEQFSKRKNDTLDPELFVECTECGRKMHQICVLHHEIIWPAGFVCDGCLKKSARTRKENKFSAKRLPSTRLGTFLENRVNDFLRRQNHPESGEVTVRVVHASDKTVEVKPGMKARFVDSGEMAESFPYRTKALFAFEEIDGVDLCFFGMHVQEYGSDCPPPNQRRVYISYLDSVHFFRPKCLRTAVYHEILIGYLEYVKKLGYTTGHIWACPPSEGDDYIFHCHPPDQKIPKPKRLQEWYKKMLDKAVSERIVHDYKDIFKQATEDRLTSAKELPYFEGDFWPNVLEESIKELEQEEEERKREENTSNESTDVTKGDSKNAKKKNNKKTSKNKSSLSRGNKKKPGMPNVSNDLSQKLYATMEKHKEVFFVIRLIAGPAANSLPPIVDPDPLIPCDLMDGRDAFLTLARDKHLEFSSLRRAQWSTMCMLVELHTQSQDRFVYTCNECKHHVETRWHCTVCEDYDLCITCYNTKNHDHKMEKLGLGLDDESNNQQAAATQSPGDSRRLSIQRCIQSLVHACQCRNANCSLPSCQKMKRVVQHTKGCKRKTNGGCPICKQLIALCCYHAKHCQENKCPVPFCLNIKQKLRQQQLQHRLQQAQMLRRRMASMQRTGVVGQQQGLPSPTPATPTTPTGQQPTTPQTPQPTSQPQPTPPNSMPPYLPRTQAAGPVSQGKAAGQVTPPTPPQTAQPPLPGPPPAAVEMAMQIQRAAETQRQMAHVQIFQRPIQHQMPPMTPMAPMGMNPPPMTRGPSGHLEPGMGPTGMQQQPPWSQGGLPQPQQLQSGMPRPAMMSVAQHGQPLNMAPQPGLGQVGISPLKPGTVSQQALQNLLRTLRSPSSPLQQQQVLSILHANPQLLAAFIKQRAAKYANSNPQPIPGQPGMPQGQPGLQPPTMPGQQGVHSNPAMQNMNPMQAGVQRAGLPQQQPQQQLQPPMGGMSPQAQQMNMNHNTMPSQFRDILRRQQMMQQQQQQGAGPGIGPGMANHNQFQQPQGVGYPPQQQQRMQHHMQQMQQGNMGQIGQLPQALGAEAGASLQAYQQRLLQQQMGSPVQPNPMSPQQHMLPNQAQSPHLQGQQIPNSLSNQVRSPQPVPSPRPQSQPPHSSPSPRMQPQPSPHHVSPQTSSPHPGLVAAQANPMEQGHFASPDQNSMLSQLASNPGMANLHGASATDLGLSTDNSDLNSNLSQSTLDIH
Method: (§1) LP1 cells were cultured in DMEM (Gibco, 41966-029) supplemented with 15 % FBS (Sigma, F9665); MM1S and LNCaP cells in RPMI 1640 ATCC modification (Gibco, […]
(§2) DMEM/F12 (Gibco, 11320074) supplemented with 1 % non-essential amino acids […]
(§3) additionally supplemented with 1 % penicillin/streptomycin (Gibco, 15070-063), and cells maintained in a humidified incubator with 5 % CO2 at 37 °C. The identity of all lines (except for MM1S which were recently purchased from ATCC) was authenticated by STR profiling (performed by Microsynth).
(§4) Quantification of CBP/EP300 degradation by Western blotting
(§5) LP1 cells plated on 6 well plates were treated with the stated compounds at a final concentration of 0.1 % DMSO for the stated time. Cells were harvested on ice, washed in PBS and lysed in RIPA buffer (50 mM tris pH 7.5, 2 mM EDTA, 150 mM NaCl, 0.5 % sodium deoxycholate, 1 % Triton X100) supplemented with cOmplete ™ protease inhibitor cocktail (Roche). Protein concentrations were determined using the Pierce ™ BCA Protein Assay Kit (Thermo Scientific, 23227) and equal amounts were separated on 4-12 % ExpressPl us™ PAGE gels (GenScript, M41215). Proteins were transferred to PVDF membranes, the membranes were blocked with 5 % milk (Merk Millipore, 115363) in PBS-T and proteins were stained with the following antibodies at 4 °C overnight: CBP […]
(§6) BRD4 (Bethyl Laboratories, A301-985A50, diluted 1:2000) and vinculin (Invitrogen, 42H89L44, diluted 1:1000). For detection, membranes were incubated for 1 h at room temperature with HRP-conjugated secondary antibodies (Southern Biotech, anti-rabbit […]
(§7) SuperSignal™ West Pico PLUS Chemiluminescent Substrate (Thermo Scientific, 34580) and the Vilber Fusion-FX7 imager. Bands were quantified using ImageJ software and protein levels normalized to protein from DMSO treated cells run on the same membrane. For dose response curves, data was fitted using a four -parameter dose-response curve in GraphPad Prism v. 9.5.1, where the top is fixed at 100 %. The DC50 was defined as the PROTAC concentration resulting in 50 % remaining protein. […]

CBP-BRD [1] = target: T2, CBP-BRD (Homo sapiens, UniProt Q92793); test: BROMOscan ligand binding site-directed competition assay, CBP; set-up: T7 phage display fusion with DNA tag for qPCR; purchased Eurofins Discovery (BROMOscan service); host or cells: E. coli infected with T7 phage; conditions: for Kd: BROMOscan; for LE CBP (ligand efficiency): LE = 1.4(pIC50)/N
Method: (§8) 2. Methods and General Procedures […]
(§9) KD values were determined using BROMOscan™ technology, carried out by Eurofins […]
(§10) Discovery according to their standard protocol. Briefly E. coli were infected with T7 phage […]
(§11) strains displaying bromodomains and bromodomain protein was subsequently purified […]
(§12) through lysis, centrifugation and filtration. Affinity resins were generated by incubation of […]
(§13) streptavidin-coated magnetic beads with biotinylated small molecules or acetylated […]
(§14) peptide ligands. Binding reactions were assembled by combining the bromodomains and […]
(§15) liganded affinity beads in binding buffer (17 % SeaBlock, 0.33x PBS, 0.04 % Tween 20, […]
(§16) 0.02 % BSA, 0.004 % sodium azide and 7.4 mM DTT) with compounds (11-point, 3-fold […]
(§17) dilution series) added to give a final DMSO concentration of 0.09 %. Assay plates were […]
(§18) incubated for 1 h, prior to washing and elution of beads. The bromodomain concentration […]
(§19) in the eluates was measured by qPCR of the DNA tag on the bromodomain.
(§20) KD values were calculated with a standard dose-response curve fitted using the Hill […]
(§21) Response = Background + Signal − Background […]
(§22) The Hill Slope was set to -1 and curves fitted using a non-linear least square fit with the Levenberg-Marquardt algorithm.
(§23) Ligand efficiency (LE) was calculated as follows: LE = 1.4(pIC50)/N

CBP = target: T3, CBP (Homo sapiens, UniProt Q92793); test: Quantification of CBP degradation by Western blotting in LP1 cells; format: cell-based; conditions: 16 h, Western blot; for % remaining CBP: 5 μM compound
T3 construct: quantification of CBP and EP300 levels by Western blotting following 16 h treatment of LP1 cells; endogenous in cells; host or cells: LP1 cells
T3 sequence (Q92793 whole entry): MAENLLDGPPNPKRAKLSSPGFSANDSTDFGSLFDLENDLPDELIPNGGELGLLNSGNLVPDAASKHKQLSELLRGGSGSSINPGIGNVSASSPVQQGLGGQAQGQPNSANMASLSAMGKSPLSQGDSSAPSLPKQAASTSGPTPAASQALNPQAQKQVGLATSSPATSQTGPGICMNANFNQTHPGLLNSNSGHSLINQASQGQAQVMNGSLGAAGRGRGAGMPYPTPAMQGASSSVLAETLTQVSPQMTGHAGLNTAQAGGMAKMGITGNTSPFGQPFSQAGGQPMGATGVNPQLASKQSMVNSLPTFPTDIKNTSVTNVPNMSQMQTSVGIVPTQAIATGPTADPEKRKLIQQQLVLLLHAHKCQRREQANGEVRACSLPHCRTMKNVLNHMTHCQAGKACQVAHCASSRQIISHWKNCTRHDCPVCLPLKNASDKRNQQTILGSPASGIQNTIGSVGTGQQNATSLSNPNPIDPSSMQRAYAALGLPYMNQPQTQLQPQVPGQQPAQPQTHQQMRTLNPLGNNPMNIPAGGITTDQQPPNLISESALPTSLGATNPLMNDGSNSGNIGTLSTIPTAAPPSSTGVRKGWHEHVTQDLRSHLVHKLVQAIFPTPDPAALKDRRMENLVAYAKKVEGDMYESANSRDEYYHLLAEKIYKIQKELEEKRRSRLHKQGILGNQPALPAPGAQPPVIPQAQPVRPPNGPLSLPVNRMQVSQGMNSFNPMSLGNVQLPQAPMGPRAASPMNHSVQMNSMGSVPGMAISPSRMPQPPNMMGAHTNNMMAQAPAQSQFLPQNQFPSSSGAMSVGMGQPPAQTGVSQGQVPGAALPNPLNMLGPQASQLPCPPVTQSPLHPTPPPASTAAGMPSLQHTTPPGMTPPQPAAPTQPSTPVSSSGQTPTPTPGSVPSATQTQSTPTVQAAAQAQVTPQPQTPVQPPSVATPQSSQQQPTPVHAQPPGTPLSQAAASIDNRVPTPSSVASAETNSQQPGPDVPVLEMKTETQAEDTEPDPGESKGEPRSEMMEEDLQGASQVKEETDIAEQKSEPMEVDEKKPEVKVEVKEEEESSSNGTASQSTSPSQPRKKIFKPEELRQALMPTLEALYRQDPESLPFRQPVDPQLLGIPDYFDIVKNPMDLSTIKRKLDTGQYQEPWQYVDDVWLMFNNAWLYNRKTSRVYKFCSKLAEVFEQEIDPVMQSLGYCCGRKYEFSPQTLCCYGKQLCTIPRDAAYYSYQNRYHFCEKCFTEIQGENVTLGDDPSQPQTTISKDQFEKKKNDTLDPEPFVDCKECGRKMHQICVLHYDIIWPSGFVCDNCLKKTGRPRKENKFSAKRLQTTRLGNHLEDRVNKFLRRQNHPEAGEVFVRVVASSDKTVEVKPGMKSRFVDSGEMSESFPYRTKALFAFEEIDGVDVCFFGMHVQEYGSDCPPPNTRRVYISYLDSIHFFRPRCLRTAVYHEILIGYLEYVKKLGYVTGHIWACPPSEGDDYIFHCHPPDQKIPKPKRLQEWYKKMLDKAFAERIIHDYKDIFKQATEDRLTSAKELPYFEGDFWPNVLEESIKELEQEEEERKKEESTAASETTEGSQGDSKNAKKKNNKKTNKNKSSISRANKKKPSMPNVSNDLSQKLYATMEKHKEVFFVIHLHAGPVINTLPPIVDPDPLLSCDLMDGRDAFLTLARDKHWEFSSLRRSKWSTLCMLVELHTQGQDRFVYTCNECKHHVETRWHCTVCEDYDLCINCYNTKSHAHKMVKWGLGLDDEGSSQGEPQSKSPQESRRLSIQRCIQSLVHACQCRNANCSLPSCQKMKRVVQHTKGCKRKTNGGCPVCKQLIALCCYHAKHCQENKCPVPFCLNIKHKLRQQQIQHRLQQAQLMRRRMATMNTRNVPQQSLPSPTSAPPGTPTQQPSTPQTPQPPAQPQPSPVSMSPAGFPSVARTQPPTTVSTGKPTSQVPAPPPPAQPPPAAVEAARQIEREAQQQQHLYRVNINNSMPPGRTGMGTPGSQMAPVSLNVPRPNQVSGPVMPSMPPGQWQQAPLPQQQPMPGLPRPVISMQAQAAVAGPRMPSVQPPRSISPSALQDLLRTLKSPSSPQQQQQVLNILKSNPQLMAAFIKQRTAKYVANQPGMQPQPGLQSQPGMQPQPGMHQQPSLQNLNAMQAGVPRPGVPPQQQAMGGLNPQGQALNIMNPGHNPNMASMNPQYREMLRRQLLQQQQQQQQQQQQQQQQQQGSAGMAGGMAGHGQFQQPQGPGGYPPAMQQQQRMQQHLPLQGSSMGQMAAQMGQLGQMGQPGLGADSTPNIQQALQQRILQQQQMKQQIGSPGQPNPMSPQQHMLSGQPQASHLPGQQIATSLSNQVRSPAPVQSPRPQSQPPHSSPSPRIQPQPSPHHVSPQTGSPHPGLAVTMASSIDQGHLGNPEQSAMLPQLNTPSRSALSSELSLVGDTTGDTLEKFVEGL
Method: as §1, §2, §3, §4, §5, §6, §7

EP300-BRD = target: T4, EP300-BRD (Homo sapiens, UniProt Q09472); test: BROMOscan ligand binding site-directed competition assay, EP300; conditions: for Kd: BROMOscan; for LE EP300 (ligand efficiency): LE = 1.4(pIC50)/N
T4 construct: T7 phage display fusion with DNA tag for qPCR; purchased Eurofins Discovery (BROMOscan service); host or cells: E. coli infected with T7 phage
T4 sequence (Q09472 1049-1156 limits assumed): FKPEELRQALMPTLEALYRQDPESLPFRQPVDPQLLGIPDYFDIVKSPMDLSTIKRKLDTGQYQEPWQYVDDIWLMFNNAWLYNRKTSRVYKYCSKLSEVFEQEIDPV
Method: as §8, §9, §10, §11, §12, §13, §14, §15, §16, §17, §18, §19, §20, §21, §22, §23

[2] = target: CRBN and CBP catalytic core (Homo sapiens, UniProt Q92793+Q96SW2); test: FluoPPI cellular ternary complex formation, CBP catalytic core; format: cell-based; conditions: U2OS cells, 6 h
[3] = target: T5, CBP-BRD:CRBN thalidomide binding domain ternary complex (Homo sapiens, UniProt Q92793+Q96SW2); test: TR-FRET CBP-BRD:PROTAC:CRBN ternary complex formation; conditions: CBP-BRD and CRBN-thalidomide binding domain labeled with TR-FRET pair
T5 construct: GST-CBP (human, residues 1081-1197); the C-terminus of CRBN (human, residues 318-442); His6 with TEV cleavage site (N, cleaved yes); made in house; host or cells: Rosetta (DE3) cells (E. coli)
T5 sequence (Q92793 1081-1197): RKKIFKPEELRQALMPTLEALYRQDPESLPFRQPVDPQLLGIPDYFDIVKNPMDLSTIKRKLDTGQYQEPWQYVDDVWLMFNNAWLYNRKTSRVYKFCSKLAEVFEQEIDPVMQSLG
T5 sequence (Q96SW2 318-442): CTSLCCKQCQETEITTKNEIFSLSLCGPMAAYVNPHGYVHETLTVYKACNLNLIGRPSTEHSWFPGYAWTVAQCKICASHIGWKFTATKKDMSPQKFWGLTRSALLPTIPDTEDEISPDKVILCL
Method: (PMSF), and 1 mM EDTA) and lysed by sonication. The lysates were clarified by centrifugation (18,000 rpm, 4 °C, 1 h).
For GST-CBP the soluble proteins were loaded onto a column packed with glutathione sepharose 4B (GE Healthcare) and subsequently eluted with 10 mM reduced glutathione in buffer containing 20 mM Tris-HCl pH 8.0, and 150 mM NaCl. Finally, a size exclusion step (HiLoad 16/600 Superdex 200 pg column from GE Healthcare) was used to further purify the protein in buffer containing 50 mM HEPES pH 7.5 and 150 mM NaCl. For His-CRBN and His-CRBN-Avi(biotin), the soluble fractions were loaded onto the HisTrap FF crude column (GE Healthcare) and washed with lysis buffer supplemented with 50 mM imidazole. The proteins were eluted with a buffer containing 250 mM imidazole, 100 mM Tris-HCl pH 8.0 and 500 mM NaCl. For His-CRBN-Avi(biotin) only, recombinant TEV protease was used to cleave the His6-tag during overnight dialysis at 4 °C against buffer containing 100 mM Tris-HCl pH 8.0 and 500 mM NaCl. The dialyzed sample was passed through the HisTrap FF crude column to remove His6-tagged TEV protease and uncleaved protein. […]
The maximal control contained no PROTAC, the blank contained no SK-20 and no PROTAC – these were replaced by the appropriate buffer. […] The samples were incubated for 3 h (20 °C, dark) and the signal was detected using the Infinite M1000 plate reader (Tecan). After excitation at 317 nm, emission at 620 and 665 nm was recorded. […]
were determined according to the following equation:
activity (%) = ΔF ∗ 100 = F−Fb ∗ 100 , where Ft is the TR-FRET signal in the absence of any compound (maximal control, 100 % activity), Fb the TR-FRET signal in the absence of the GST -CBP (blank, 0 % activity) and F the TR -FRET signal in the presence of the compound. Dose -response curves were plotted in GraphPad Prism 10.2.3 and fitted with nonlinear regression “log(inhibitor) vs. normalized response – variable slope”, from which IC 50 values were determined. […]

CBP-BRD [4] = target: T2, CBP-BRD; test: TR-FRET competition with acetylated peptide binding to CBP-BRD, with and without CRBN (cooperativity); set-up: GST-CBP (human, residues 1081-1197); made in house; host or cells: Rosetta (DE3) cells (E. coli)

Compound | % remaining EP300 (EP300) [%] | Kd (CBP-BRD [1]) [nM] | % remaining CBP (CBP) [%] | Kd (EP300-BRD) [nM] | LE CBP (ligand efficiency) (CBP-BRD [1]) | LE EP300 (ligand efficiency) (EP300-BRD) | also measured
Cc1cc2c(NC(=O)c3cc(NC(=O)CCCCCCCCCCCNc4cccc5c4C(=O)N(C4CCC(=O)NC4=O)C5=O)cc(-c4ccn(C)n4)c3)cccc2nn1 (stereo not shown) [compound 4] | 43 | 3300 | 21 | > 10000 | – | – | ternary complex formation in cells with CRBN and CBP-BRD (CRBN and CBP-BRD): good ternary complex formation; ternary complex formation in cells with CBP catalytic core [2]: able to induce ternary complex formation
Cc1cc2c(NC(=O)c3cc(NC(=O)CCCCCCCCCCNc4cccc5c4C(=O)N(C4CCC(=O)N(C)C4=O)C5=O)cc(-c4ccn(C)n4)c3)cccc2nn1 (stereo not shown) [compound 10] | – | – | – | – | – | – | degradation of EP300 (EP300; 1 μM): abrogated; ternary complex formation (TR-FRET) [3]: did not show cooperativity or ternary complex formation; IC50 (CBP-BRD [4]; absence of CRBN, read-out: CBP-BRD IC50 (binary, IC50[control])): 220 nM; IC50 (CBP-BRD [4]; presence of high concentrations of CRBN C-terminal thalidomide binding domain, read-out: ternary IC50 (IC50[CRBN])): 230 nM; degradation of CBP (CBP; 1 μM): abrogated
Cc1cc2c(NC(=O)c3cc(NC(=O)c4ccco4)cc(-c4ccn(C)n4)c3)cccc2nn1 [compound 2] | – | 8.7 | – | 9.9 | 0.33 | 0.33 | –
Cc1cc2c(NC(=O)c3cc(NC(=O)CCCCCCCCNc4cccc5c4C(=O)N(C4CCC(=O)NC4=O)C5=O)cc(-c4ccn(C)n4)c3)cccc2nn1 (stereo not shown) [compound 6] | 87 | – | 83 | – | – | – | –
CC(=O)Nc1cc(NC(=O)c2ccco2)cc(C(=O)Nc2cccc3nnc(C)cc23)c1 [compound 1] | – | 19 | – | 23 | 0.34 | 0.33 | –
CC(=O)Nc1cc(C(=O)Nc2cccc3nnc(C)cc23)cc(-c2ccn(C)n2)c1 [compound 3] | – | 29 | – | 25 | 0.35 | 0.35 | –

More lines, main results first:

% remaining EP300 (EP300) [%] | Kd (CBP-BRD [1]) [nM] | % remaining CBP (CBP) [%] | Kd (EP300-BRD) [nM] | LE CBP (ligand efficiency) (CBP-BRD [1]) | LE EP300 (ligand efficiency) (EP300-BRD) | Compound | also measured
> 95 | 28 | > 95 | 45 | – | – | Cc1cc2c(NC(=O)c3cc(NC(=O)CCCCCCCN4CCN(c5ccc6c(c5)C(=O)N(C5CCC(=O)NC5=O)C6=O)CC4)cc(-c4ccn(C)n4)c3)cccc2nn1 (stereo not shown) [compound 9] | ternary complex formation in cells with CRBN and CBP-BRD (CRBN and CBP-BRD): good ternary complex formation
69 | – | 30 | – | – | – | Cc1cc2c(NC(=O)c3cc(NC(=O)CCCCCCCCCCNc4ccc5c(c4)C(=O)N(C4CCC(=O)NC4=O)C5=O)cc(-c4ccn(C)n4)c3)cccc2nn1 (stereo not shown) [compound 7] | –
95 | – | 81 | – | – | – | Cc1cc2c(NC(=O)c3cc(NC(=O)COCCOCCOCCNc4cccc5c4C(=O)N(C4CCC(=O)NC4=O)C5=O)cc(-c4ccn(C)n4)c3)cccc2nn1 (stereo not shown) [compound 8] | –

Source: paper PMC11423305, “Structure-Based Design of CBP/EP300 Degraders: When Cooperativity Overcomes Affinity” (JACS Au, 2024)
